Laboratory results: patent US12275976B2, “Phloroglucinol-resistant cell, in particular yeast” (COMPAGNIE GENERALE DES ETABLISSEMENTS MICHELIN, priority 2019, dated 2025)
Values after ≈ are worked out from the molar mass of the structure shown.

Key:
[1] = system: bacterial strain of Escherichia coli (ECAO50, derived from Escherichia coli K12); assay: microbe, parasite or virus in culture; settings: 24 h
Procedure: (§1) In order to know the threshold of phloroglucinol tolerance of bacteria or of yeasts, growth kinetics were prepared in the presence of various concentrations of phloroglucinol. These preliminary experiments aimed to evaluate their EC50.
(§2) The experiment was carried out in the following way. The phloroglucinol was dissolved at the concentration of 15 g·l^−1 in complete medium (Yeast Extract 1%+BactoPeptone 2%) containing 2% glucose as carbon source (YPD medium). The culture media containing lower phloroglucinol concentrations were obtained by diluting this first medium in the same YPD medium containing 2% glucose.
(§3) In order to carry out the experiment, the wild-type yeast or bacterial cells were inoculated at an OD600 nm of 0.05 into the various media, thus containing, as soon as the cultures were started, either 0 (positive control for growth indicated C+), 1, 2.5, 5, 7.5, 10 or 15 g·l^−1 of phloroglucinol. The cultures were carried out in 48-well microplates, at 28° C. for the yeasts, at 37° C. for the bacterial strain, with vigorous shaking for 24 h. Two yeast strains (Saccharomyces cerevisiae) and one bacterial strain (Escherichia coli) were tested.

[2] = system: CC787-1B yeast strain; assay: Growth kinetics of yeast cells in the presence of increasing phloroglucinol concentrations
Procedure: as §1, §2, §3

[3] = target: T1, SNQ2 (Saccharomyces cerevisiae, UniProt P32568); assay: Phloroglucinol tolerance of yeast strains overexpressing PDRs (OD600 nm at 24 h); format: cell-based; settings: inferred from SNQ2 overexpression lifting toxicity at 20 g·l^−1 phloroglucinol
T1 construct: expressed in transfected cells; host or cells: Saccharomyces cerevisiae, gene integrated at the JLP1 locus under the pCCW12 promoter (clones YA2786-1 and YA2786-2)
T1 sequence (P32568 whole entry): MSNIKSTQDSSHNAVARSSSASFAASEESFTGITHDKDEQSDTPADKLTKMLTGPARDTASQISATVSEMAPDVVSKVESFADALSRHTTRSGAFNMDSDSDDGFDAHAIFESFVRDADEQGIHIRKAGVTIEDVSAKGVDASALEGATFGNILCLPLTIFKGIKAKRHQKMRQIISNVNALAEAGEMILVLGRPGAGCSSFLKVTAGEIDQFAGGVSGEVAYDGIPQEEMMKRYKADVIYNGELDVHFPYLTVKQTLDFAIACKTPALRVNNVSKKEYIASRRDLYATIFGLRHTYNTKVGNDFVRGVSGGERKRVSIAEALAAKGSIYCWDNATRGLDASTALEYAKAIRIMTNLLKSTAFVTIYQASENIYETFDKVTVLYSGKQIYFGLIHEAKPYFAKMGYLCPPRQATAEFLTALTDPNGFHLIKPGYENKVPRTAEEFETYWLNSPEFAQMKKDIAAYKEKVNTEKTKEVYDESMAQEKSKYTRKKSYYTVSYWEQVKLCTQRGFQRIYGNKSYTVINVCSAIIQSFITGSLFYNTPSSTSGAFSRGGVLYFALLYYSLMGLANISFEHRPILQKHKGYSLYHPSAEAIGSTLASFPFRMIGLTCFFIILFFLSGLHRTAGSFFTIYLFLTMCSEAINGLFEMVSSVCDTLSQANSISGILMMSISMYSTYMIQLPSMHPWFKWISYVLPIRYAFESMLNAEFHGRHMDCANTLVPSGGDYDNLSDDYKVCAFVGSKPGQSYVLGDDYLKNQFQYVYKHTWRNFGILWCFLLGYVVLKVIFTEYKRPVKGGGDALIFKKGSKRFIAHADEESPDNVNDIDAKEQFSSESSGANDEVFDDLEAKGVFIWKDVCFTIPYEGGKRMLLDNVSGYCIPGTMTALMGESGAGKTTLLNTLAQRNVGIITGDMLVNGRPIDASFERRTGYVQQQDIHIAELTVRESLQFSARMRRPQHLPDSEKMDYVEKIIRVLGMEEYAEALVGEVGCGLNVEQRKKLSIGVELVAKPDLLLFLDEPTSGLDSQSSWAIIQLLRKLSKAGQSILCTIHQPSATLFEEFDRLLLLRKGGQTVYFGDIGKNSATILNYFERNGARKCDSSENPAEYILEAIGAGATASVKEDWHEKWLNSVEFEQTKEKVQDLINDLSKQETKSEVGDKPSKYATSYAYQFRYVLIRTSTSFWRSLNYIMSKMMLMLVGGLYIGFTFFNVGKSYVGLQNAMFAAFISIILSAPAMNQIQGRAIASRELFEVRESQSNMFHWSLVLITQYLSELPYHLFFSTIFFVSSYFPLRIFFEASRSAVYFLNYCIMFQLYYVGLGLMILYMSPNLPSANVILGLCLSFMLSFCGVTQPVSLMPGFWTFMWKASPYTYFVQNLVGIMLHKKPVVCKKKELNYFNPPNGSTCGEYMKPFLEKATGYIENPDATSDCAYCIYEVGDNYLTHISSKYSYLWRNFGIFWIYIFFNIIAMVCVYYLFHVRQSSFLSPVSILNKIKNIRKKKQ
Text: The genes encoding the PDR proteins were amplified from yeast (W303-1A) genomic DNA by PCR (“polymerase chain reaction”) and cloned in plasmids. The accuracy of the sequence was verified by sequencing. The various genes encoding the PDRs were integrated into the genome at the JLP1 locus according to the structure described in FIG. 4A. Each strain constructed bears a YA number, and a library of 28 yeast strains overexpressing a PDR transporter was thus created, in a proportion of two clones per transporter.
In order to test the impact of the PDR overexpression on the phloroglucinol tolerance at high phloroglucinol concentration (>15 g·l^−1), the strains were cultured as follows.
The phloroglucinol was dissolved at the concentration of 20 g·l^−1 in YPD medium containing 2% glucose as carbon source. In order to carry out the experiment, the yeasts expressing each PDR were inoculated at an OD600 nm of 0.05. The cultures were carried out in 48-well microplates, incubated with agitation at 28° C. for 24 h. After 24 h, the OD600 nm is measured. FIG. 5 represents the OD600 nm values obtained at the end of the culture.

[4] = system: yeast cells; assay: Phloroglucinol toxicity in yeast with ethanol added after 20 h of culture; settings: 20 g/l of phloroglucinol, 50 g·l^−1 ethanol added at 20 h, read at 48 h
Procedure: The toxicity of phloroglucinol in the presence of ethanol added after 20 h of culture was tested.
The experiments were carried out in an Erlenmeyer flask with vigorous stirring in complete medium containing 2% glucose as carbon source. The yeast cells were inoculated at an OD600 nm of 0.05 from precultures in complete medium. The cultures are completed with increasing concentrations of phloroglucinol (0, 1, 5, 10, 15, 20 g/l) and incubated for 48 h. Two series of Erlenmeyer flasks were prepared. In the second series, 50 g·l^−1 of ethanol are added at 20 h. The growth is monitored by taking samples at 18 h, 20 h, 22 h, 24 h, 42 h and 48 h, and measuring the OD600 nm.

Oc1cc(O)cc(O)c1 [phloroglucinol, benzene-1,3,5-triol]
concentrations giving total inhibition of the growth ([1]; 37° C.): greater than or equal to 2.5 g·l^−1
EC50 ([1]; Escherichia coli, read-out: EC50 of phloroglucinol on growth): ~750 µg/mL (≈ 5.95 mM)
inhibition of the growth ([1]; at the concentration of 1 g·l^−1, 37° C.): very considerable inhibition of the growth
EC50 ([2]; Saccharomyces cerevisiae, 24 h, read-out: EC50 of phloroglucinol on growth): > 10000 µg/mL
concentration from which phloroglucinol toxicity on yeast cells is apparent ([2]; conclusion): ≥ 15000 µg/mL
concentration at which significant inhibition of the growth is observed ([2]; only in this medium among 1-15 g·l^−1, 28° C., 24 h): 15000 µg/mL
transporter substrate status [3]: substrate for SNQ2
phloroglucinol inhibition in the presence of ethanol versus without ethanol [4]: slightly greater
